Measured values taken from patent US5563130A, “Methods for inhibiting angiogenesis, proliferation of endothelial or tumor cells and tumor growth” (American Cyanamid Company, priority 1994, dated 1996).
Values after ≈ are worked out from the molar mass of the structure shown.

What was measured:
Human Tumor Cell lines = experiment: Antiproliferative activity in panel of human tumor cell lines; format: cell-based; settings: average over the tested human tumor cell lines
Procedure: (§1) PROTOCOL 1, 2, and 3 are described in greater detail hereinbelow. In general, according to PROTOCOLS 1 and 2, the target ABAE and/or Human Tumor cells are exposed to the compound of Formula I for 48 hours. PROTOCOL 3 exposes ABAE cell to the compound for 4 days. A detailed description of the protocol is as follows:
(§2) Antiproliferative Activity in Human Tumor and Adult Bovine Aortic Endothelial (ABAE) Cell Lines
(§3) The antiproliferative activity of the compounds of Formula I of the present invention is evaluated in a panel comprised of human tumor cell lines and an adult bovine aortic endothelial cell line (ABAE). The human tumor cell lines are from:
(§4) 2) Colon tumors: MIP, CaCo2, and SW620.
(§5) All cell lines are maintained in log phase in RPMI 1640 media, supplemented with 5% fetal calf serum, penicillin/streptomycin and 2 mM L-glutamine. Cultures are renewed after 20 passages with cells from a fresh stock of batch-frozen early passage cells. Cell lines are routinely checked for mycoplasma contamination (Genprobe). In a laminar flow hood, cells (1-5×10^4) are plated into 96-well microtiter plates in a volume of 0.1 ml/well with a bulk microtiter dispenser (Denley). […] At this concentration, dimethylsulfoxide has no effect on cell growth. Compounds are added using a Tomtec dispenser which simultaneously dispenses from one 96-well plate, containing the drug dilutions, to the plates containing the cells. After two days of continuous drug exposure, 50% cold trichloroacetic acid (TCA) is added to 10% final concentration to fix the cells, and after 60 minutes at 4° C., the TCA is aspirated and the plates are washed 5 times with deionized water using a microtiter plate washer. The number of cells on the plate are quantitated using a protein dye-binding assay (Monks et al., 1991). A 0.4% solution of the dye, sulforhodamine B, in glacial acetic acid is added to the plates, and the plates are washed 5 times with 1% glacial acetic acid using the automatic plate washed. The bound stain is solubilized with 0.1 ml of 10 mM Tris base. The optical densities are read from an automatic spectrophotometric plate reader (Dynatech) directly to a main frame computer (VAX 8600).
(§6) Positive controls, that include standard chemotherapeutic drugs (i.e., adriamycin, cisplatin, etc.), are included in every experiment.
(§7) Background optical density measurements (complete media-cells, and complete media+drug-cells) are automatically subtracted from the appropriate control and test wells. Mean values and standard errors are determined from duplicate wells. A measure is also made of the optical density at time when the drugs are added. The number of cells after treatment (P), as % of control, is calculated for every concentration of drug, as follows: [formula] wherein: T is optical density measurement for treated cells after 48 hours;
(§8) C is optical density measurement for untreated cells after 48 hours;
(§9) Co is optical density measurement for cells at the time of drug addition.
(§10) IC50 of growth inhibition is calculated from the sets of P values using the RS-1 data package (BBN Software).
(§11) The antiproliferative activity of the compounds of Formula I is evaluated in a panel comprised of human tumor cell lines and an adult bovine aortic endothelial cell line (ABAE) as listed in PROTOCOL 1. This assay is a modification of PROTOCOL 1. The modifications include:
(§12) 1) each concentration for each compound is tested in a single well;
(§13) 2) compounds are tested at 20, 4, 0.8, 0.16 microgram/ml and additionally in some experiments at 100 and 0.32 microgram/ml;
(§14) 3) samples are pipetted into a 96-well plate for each of the cell lines by a Beckman Biomek 1000 SL robot;
(§15) 4) after fixing with TCA each well is washed with 0.35 ml distilled water twice, not five times;
(§16) 5) after staining with sulforhodamine B each well is washed 3 times, not five times; […]

A2780/DDP = experiment: Antiproliferative activity in human ovarian tumor cell line A2780/DDP; format: cell-based; settings: Homo sapiens, A2780/DDP, read-out: A2780/DDP/DDP IC50, PROTOCOL 1 and PROTOCOL 2
Procedure: as §1, §2, §3, §5, §6, §7, §8, §9, §10, §11, §12, §13, §14, §15, §16

HTB 16 = experiment: Antiproliferative activity in human tumor cell line HTB 16; format: cell-based; settings: Homo sapiens; ovarian tumor line; PROTOCOL 1 and PROTOCOL 2
Procedure: as §1, §2, §3, §5, §6, §7, §8, §9, §10, §11, §12, §13, §14, §15, §16

A2780S = experiment: Antiproliferative activity in human ovarian tumor cell line A2780S; format: cell-based; settings: Homo sapiens, A2780S, PROTOCOL 1 and PROTOCOL 2
Procedure: as §1, §2, §3, §5, §6, §7, §8, §9, §10, §11, §12, §13, §14, §15, §16

angiogenesis = settings: Cancer Research 51, 672-675, Brem et al; vs combination of heparin and cortisone; cited from earlier work
MIP = experiment: Antiproliferative activity in human colon tumor cell line MIP; format: cell-based; settings: Homo sapiens, PROTOCOL 1 and PROTOCOL 2
Procedure: as §1, §2, §3, §4, §5, §6, §7, §8, §9, §10, §11, §12, §13, §14, §15, §16

SW620 = experiment: Antiproliferative activity in human colon tumor cell line SW620; format: cell-based; settings: Homo sapiens, SW-620, PROTOCOL 1 and PROTOCOL 2
Procedure: as §1, §2, §3, §4, §5, §6, §7, §8, §9, §10, §11, §12, §13, §14, §15, §16

[1] = test system: Adult Bovine Aortic Endothelial (ABAE) cell line; experiment: Antiproliferative activity in ABAE cells, PROTOCOL 2 (48 h, SRB, single well); format: cell-based; settings: Bos taurus; ABAE cells, 48 h, PROTOCOL 2
Procedure: as §1, §2, §11, §12, §13, §14, §15
5) after staining with sulforhodamine B each well is washed 3 times, not five times;
6) the growth inhibition (I) as % of control, is calculated using the RS-1 data package (BBN Software), for every concentration of drug, as follows: [formula] wherein: T is optical density measurement for treated cells after 48 hours;
as §8
7) IC50 of growth inhibition is determined from graphically from dose response curves, as is known in the art.
Table 1 presents the results depicting the antiproliferative activity of the compounds of Formula I against an Adult Bovine Aortic Endothelial (ABAE) cell line, as evaluated by PROTOCOL 1 and PROTOCOL 2. The results are presented in terms of IC50 and are as follows.

[2] = test system: Adult Bovine Aortic Endothelial (ABAE) cell line; experiment: Antiproliferative activity in ABAE cells, PROTOCOL 3 (4 days, cell count); format: cell-based; settings: Bos taurus, 96 h, PROTOCOL 3, FIG. 1, read-out: inhibits 50% of cell growth
Procedure: as §1
Antiproliferative Activity in Adult Bovine Aortic Endothelial (ABAE) Cell Line
ABAE cells are grown in DMEM media (Mediatech, Washington, D.C.) supplemented with 10% calf serum (Hyclone). ABAE cells are plated in 24-well dishes at 8,000 cells/well, followed by the addition of increasing concentrations of 7-[substituted amino]-9-[(substituted glycyl)amido]-6-demethyl-6-deoxytetracyclines. After four days, the cells are detached and counted. […] The growth inhibition (I) as % of control is calculated as follows: [formula] wherein: Nc is the number of cells in untreated wells;
Nt is the number of cells in treated wells;
No is the number of plated cells.
IC50 of growth inhibition is determined from the sets of I values plotted by Kaleidograph software (Abelbeck Software).
In addition FIG. 1, presents the dose response curve of the compound of Example 6 for the above ABAE cell line obtained by PROTOCOL 3.

tumor = settings: in conjunction with cancer chemotherapy or radiation therapy; Teicher et al; cited from earlier work

CN(C)c1ccc(O)c2c1C[C@H]1C[C@H]3[C@H](N(C)C)C(O)=C(C(N)=O)C(=O)[C@@]3(O)C(O)=C1C2=O [Minocycline, reference compound]
IC50 (Human Tumor Cell lines): 6.6 µg/mL (≈ 14.4 µM)
IC50 (A2780/DDP): 6.1 µg/mL (≈ 13.3 µM)
IC50 (HTB 16): 5.8 µg/mL (≈ 12.7 µM)
IC50 (A2780S): 6.1 µg/mL (≈ 13.3 µM)
extent of angiogenesis inhibition (angiogenesis): comparable to that of the combination therapy of heparin and cortisone
IC50 (MIP): 6.1 µg/mL (≈ 13.3 µM)
IC50 (SW620): 6.5 µg/mL (≈ 14.2 µM)
IC50 [1]: ≥ 20 µg/mL
IC50 [2]: ~50 µg/mL (≈ 109 µM)
number of metastases (tumor): reduced
tumor growth (tumor): decreased
